According to publication PMC12036875, “Mitochondria-targeting natural product rhein conjugated with dichloroacetate as the dual inhibitor of glycolysis and oxidative phosphorylation to off energize cancer cells and induce ROS storm” (Theranostics, 2025):
Like-named read-outs stand apart in the source and are kept apart here.

Columns and labels:
293T cells = assay: MTT cytotoxicity assay, normal cells; format: cell-based; conditions: Homo sapiens, HEK-293T, read-out: IC50 293T
Procedure: (§1) The cytotoxicity of Rhein-DCA conjugate was performed on various cancer cell lines, including breast cancer (4T1 and MCF-7), cervical cancer (HeLa), and colorectal carcinoma (CT26) via 3-(4,5)-dimethylthiahiazo(-z-y1)-3,5-di-phenytetrazoliumromide (MTT) assay. […] Moreover, the cytotoxicity of these compounds (rhein, DCA, R + D and Rhein-DCA) for normal cells (293T) was lower than that of those tested cancer cells.
Mouse breast cancer 4T1 cells and Mouse colorectal carcinoma CT26 cells were purchased from Haixing Biosciences Co., Ltd (Jiangsu, P. R. China), and cultured in complete RPMI-1640 medium supplemented with 10% FBS and 1% Penicillin / Streptomycin in a cell incubator (37 °C in 95% air and 5% CO2 atmosphere). Human breast cancer MCF-7 cells, Human cervical carcinoma HeLa cells and Human embryonic kidney 293T cells were obtained from the China Center for Type Culture Collection (CCTCC). MCF-7 and HeLa cells were cultured in DMEM medium containing 10% FBS and 1% Penicillin / Streptomycin and then cultured in a cell incubator (37 °C in 95% air and 5% CO2 atmosphere).
The cytotoxicity of rhein, DCA, the mixture of rhein and DCA (R + D) and Rhein-DCA conjugate was evaluated on HeLa, MCF-7, CT26, 4T1 and 293T cell lines by MTT assay. Cells were seeded in 96-well plates at a density of 3 × 10^3 cells per well in the corresponding complete culture medium and cultured for 24 h. Then cells were incubated with 200 μL fresh medium containing the respective desired concentrations of rhein, DCA, R + D (with the concentrations being 100, 66.7, 44.4, 29.6, 19.8, 13.2, 8.8, 5.9, 3.9, 2.6, 1.7 and 1.2 μM, respectively) and Rhein-DCA conjugate (with the concentrations being 29.6, 19.8, 13.2, 8.8, 5.9, 3.9, 2.6, 1.7, 1.2, 0.8, 0.5 and 0.3 μM, respectively). After 72 h of incubation, 20 μL of MTT solution (5 mg/mL) was added to each well and the plates were cultured for another 4 h. The medium was carefully removed, and 110 μL of DMSO was added into per well to dissolve the formazan. The absorption densities at 590 nm were recorded with microplate reader. […]

[1] = test system: 4T1, MCF-7, HeLa and CT26 cell lines; assay: MTT cytotoxicity assay, statement over all tested cancer cell lines; format: cell-based; conditions: for IC50: 72 h, read-out: IC50 in all tested cell lines
Procedure: as §1
The cytotoxicity of rhein, DCA, the mixture of rhein and DCA (R + D) and Rhein-DCA conjugate was evaluated on HeLa, MCF-7, CT26, 4T1 and 293T cell lines by MTT assay. Cells were seeded in 96-well plates at a density of 3 × 10^3 cells per well in the corresponding complete culture medium and cultured for 24 h. Then cells were incubated with 200 μL fresh medium containing the respective desired concentrations of rhein, DCA, R + D (with the concentrations being 100, 66.7, 44.4, 29.6, 19.8, 13.2, 8.8, 5.9, 3.9, 2.6, 1.7 and 1.2 μM, respectively) and Rhein-DCA conjugate (with the concentrations being 29.6, 19.8, 13.2, 8.8, 5.9, 3.9, 2.6, 1.7, 1.2, 0.8, 0.5 and 0.3 μM, respectively). After 72 h of incubation, 20 μL of MTT solution (5 mg/mL) was added to each well and the plates were cultured for another 4 h. The medium was carefully removed, and 110 μL of DMSO was added into per well to dissolve the formazan. The absorption densities at 590 nm were recorded with microplate reader. The quoted IC50 values were presented as the mean ± standard deviation.

4T1 cells = assay: Immunogenic cell death detection in vitro (HMGB1, CRT, extracellular ATP); format: cell-based, Mouse
Text: It is known that mitochondrial dysfunction occasioned by ROS triggers immunogenic cell death (ICD), characterized by the release of DAMPs from tumor cells, such as high mobility group box 1 (HMGB1), calreticulin (CRT) and ATP. These DAMPs directly reactivated anti-tumor immune response of TAMs of in vivo [33]. Given the encouraging results of ROS generation, the ICD effect of Rhein-DCA conjugate was consequently explored in vitro. HMGB1 is a type of nuclear protein, which would be released to extracellular during the ICD process. […] This was because rhein, DCA, and the R + D cannot induce adequate production of ROS and sufficient ATP depletion (Figure 5F). We further detected the HMGB1 content in the cell culture media with an ELISA kit. […] This further confirmed that Rhein-DCA effectively promoted the release of HMGB1 from the cell nucleus to the extracellular space (Figure S20). Unlike HMGB1, abundant CRT often exposed on the cell membrane surface of tumor cells. Flow cytometry was employed to analyze CRT protein of 4T1 cells. […] The secreted ATP from 4T1 cells with immunogenicity was further measured to evaluate the ICD effect after being cultured with various drugs for 6, 12 and 24 h. […] There was no apparent distinction between rhein, DCA, R + D groups and the control group when co-cultured for 6 or 12 h. A slight difference was observed until the cultivation time was prolonged to 24 h. […] This reminded us that the Rhein-DCA conjugate may enhance tumor treatment by promoting ICD-mediated immunotherapy.
4T1 cells were seeded in 6-well plates and confocal dishes with an identical density of 10 × 10^4 cells per well for 24 h cultivation. The cells were processed with indicated drugs at a concentration of 6.25 μM for another 24 h. The cells were washed twice with PBS and then fixed with 4%-paraformaldehyde (1 mL) for 15 min at 37 °C, followed by two washes with PBS. (1) The cells on confocal dishes were next permeabilized with triton-X-100 for 15 min at room temperature, blocked with BSA solution (5% in PBS) for 1 h at room temperature, and further incubated with rabbit anti-mouse HMGB-1 (1:500) overnight at 4 °C. Afterwards, the cells were incubated with secondary antibody (1:500) for 1 h at room temperature, washed with PBS, and then stained with Hoechst 33342 (10 μg/mL) for 10 min in the dark at room temperature. Finally, confocal microscope was employed to observe the HMGB1 protein within the cells. The secretion of HMGB1 in culture medium was detected by ELISA assay. The culture media was collected and centrifuged at 1000 G for 20 min, the supernatant was collected and detected with ELISA kit according to the manufacturer's protocol. (2) The cells in the 6-well plates were collected in 1.5 mL tubes, stained with rabbit anti-mouse calreticulin (1:1000) for 30 min at 4 °C, washed twice with PBS, and then analyzed with flow cytometry. (3) For the extracellular ATP content, the cells were cultured for 6, 12 and 24 h at 37 °C, and the medium were collected and centrifuged at 1000 G for 20 min, the supernatant was collected and detection with ELISA kit according to the manufacturer's protocol.

[2] = 72 h treatment, MTT, normal cells, mean ± S.D., n = 3

Compound | IC50 (293T cells; 72 h) [µM] | IC50 [1] [µM] | HMGB1 in cell nucleus (CLSM red fluorescence) (4T1 cells; 6.25 μM, 24 h) | IC50 (293T cells; [2]) [µM] | IC50 ([1]; MTT, summary over the cell lines) [µM] | increase of cytotoxicity in comparison with individual rhein, DCA and their combination ([1]; all four cancer cell lines) | surface-exposed CRT (4T1 cells; 6.25 μM, 24 h, flow cytometry) [%] | HMGB1 secreted into the culture medium (ELISA) (4T1 cells; 6.25 μM, 24 h, vs control, rhein, DCA, R + D) | extracellular ATP in supernatants (4T1 cells; 6 h to 24 h, vs other groups)
O=C(O)C(Cl)Cl [DCA, Dichloroacetate] | > 100 | > 100 | almost completely located in nuclei |  |  |  |  |  | 
O=C(O)c1cc(O)c2c(c1)C(=O)c1cccc(O)c1C2=O [Rhein, 4,5-dihydroxyanthraquinone-2-carboxylic acid] |  |  | almost completely located in nuclei | 126 ± 13.6 | 40 to 80 |  |  |  | 
O=C(OCCOC(=O)C(Cl)Cl)c1cc(O)c2c(c1)C(=O)c1cccc(O)c1C2=O [Rhein-DCA] |  |  | disappeared | 11.7 |  | at least 10 fold | 44 | increased significantly | higher
